US12077503B2, “Substituted cyclic amides and their use as herbicides” (FMC CORPORATION, priority 2015, dated 2024)

Tests used:
Test in all cases: Test C preemergence
Assay type in all cases: in vivo
Conditions in all cases: scale 0 to 100, 0 no effect, 100 complete control
[1] = system: wheat (winter wheat, Triticum aestivum)
Procedure, shortened: (§1)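 Visual 0 (no effect) to 100 (complete control) ratings versus controls, taken 13–15 d after treatment in the greenhouse; dash means no result. Compounds in a surfactant-containing non-phytotoxic solvent blend were applied preemergence to seeds in loam-sand soil or postemergence to 1- to 4-leaf plants (2–18 cm) in peat-based medium.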

[2] = system: barnyardgrass (Echinochloa crus-galli)
Procedure, shortened: as §1

[3] = system: blackgrass (Alopecurus myosuroides)
Procedure, shortened: as §1

[4] = system: foxtail, giant (giant foxtail, Setaria faberii)
Procedure, shortened: as §1

[5] = system: nutsedge, yellow (yellow nutsedge, Cyperus esculentus)
Procedure, shortened: as §1

corn (Zea mays) = system: corn (Zea mays)
Procedure, shortened: as §1

soybean (Glycine max) = system: soybean (Glycine max)
Procedure, shortened: as §1

[6] = system: Galium (catchweed bedstraw, Galium aparine)
Procedure, shortened: as §1

[7] = system: velvetleaf (Abutilon theophrasti)
Procedure, shortened: as §1

[8] = system: oilseed rape (Brassica napus)
Procedure, shortened: as §1

[9] = system: waterhemp (common waterhemp, Amaranthus rudis)
Procedure, shortened: as §1

[10] = system: ryegrass, Italian (Italian ryegrass, Lolium multiflorum)
Procedure, shortened: as §1

[11] = system: morningglory (Ipomoea coccinea)
Procedure, shortened: as §1

[12] = system: lambsquarters (Chenopodium album)
Procedure, shortened: as §1

[13] = system: johnsongrass (Sorghum halepense)
Procedure, shortened: as §1

[14] = system: ragweed (common ragweed, Ambrosia elatior)
Procedure, shortened: as §1

[15] = system: crabgrass, large (large crabgrass, Digitaria sanguinalis)
Procedure, shortened: as §1

[16] = system: pigweed (Amaranthus retroflexus)
Procedure, shortened: as §1

## CN1CC(c2ccc(C(F)(F)F)cc2)C(C(=S)Nc2ccccc2F)C1=O (stereo not shown) [Compound 450]
[1]; 62 g ai/ha
  Plant response rating, Wheat: 30
[1]; 125 g ai/ha
  Plant response rating, Wheat: 40
[1]; 250 g ai/ha
  Plant response rating, Wheat: 60
[2]; 31 g ai/ha
  Plant response rating, Barnyardgrass: 90
[2]; 62 g ai/ha
  Plant response rating, Barnyardgrass: 90
[2]; 125 g ai/ha
  Plant response rating, Barnyardgrass: 90
[2]; 250 g ai/ha
  Plant response rating, Barnyardgrass: 95
[3]; 31 g ai/ha
  Plant response rating, Blackgrass: 0
[3]; 62 g ai/ha
  Plant response rating, Blackgrass: 0
[3]; 125 g ai/ha
  Plant response rating, Blackgrass: 45
[3]; 250 g ai/ha
  Plant response rating, Blackgrass: 60
[4]; 31 g ai/ha
  Plant response rating, Foxtail, Giant: 90
[4]; 62 g ai/ha
  Plant response rating, Foxtail, Giant: 90
[4]; 125 g ai/ha
  Plant response rating, Foxtail, Giant: 90
[4]; 250 g ai/ha
  Plant response rating, Foxtail, Giant: 95
[5]; 31 g ai/ha
  Plant response rating, Nutsedge, Yellow: 0
[5]; 62 g ai/ha
  Plant response rating, Nutsedge, Yellow: 0
[5]; 125 g ai/ha
  Plant response rating, Nutsedge, Yellow: 0
[5]; 250 g ai/ha
  Plant response rating, Nutsedge, Yellow: 0
Corn (Zea mays); 31 g ai/ha
  Plant response rating, Corn: 5
Corn (Zea mays); 62 g ai/ha
  Plant response rating, Corn: 5
Corn (Zea mays); 125 g ai/ha
  Plant response rating, Corn: 20
Corn (Zea mays); 250 g ai/ha
  Plant response rating, Corn: 65
Soybean (Glycine max); 62 g ai/ha
  Plant response rating, Soybean: 5
Soybean (Glycine max); 125 g ai/ha
  Plant response rating, Soybean: 0
Soybean (Glycine max); 250 g ai/ha
  Plant response rating, Soybean: 0
[6]; 31 g ai/ha
  Plant response rating, Galium: 50
[6]; 62 g ai/ha
  Plant response rating, Galium: 90
[6]; 125 g ai/ha
  Plant response rating, Galium: 90
[6]; 250 g ai/ha
  Plant response rating, Galium: 95
[7]; 62 g ai/ha
  Plant response rating, Velvetleaf: 0
[7]; 125 g ai/ha
  Plant response rating, Velvetleaf: 10
[7]; 250 g ai/ha
  Plant response rating, Velvetleaf: 50
[8]; 31 g ai/ha
  Plant response rating, Oilseed Rape: 30
[8]; 62 g ai/ha
  Plant response rating, Oilseed Rape: 30
[8]; 125 g ai/ha
  Plant response rating, Oilseed Rape: 20
[8]; 250 g ai/ha
  Plant response rating, Oilseed Rape: 60
[9]; 62 g ai/ha
  Plant response rating, Waterhemp: 60
[9]; 125 g ai/ha
  Plant response rating, Waterhemp: 75
[9]; 250 g ai/ha
  Plant response rating, Waterhemp: 85
[10]; 62 g ai/ha
  Plant response rating, Ryegrass, Italian: 0
[10]; 125 g ai/ha
  Plant response rating, Ryegrass, Italian: 0
[10]; 250 g ai/ha
  Plant response rating, Ryegrass, Italian: 30
[11]; 31 g ai/ha
  Plant response rating, Morningglory: 0
[11]; 62 g ai/ha
  Plant response rating, Morningglory: 0
[11]; 125 g ai/ha
  Plant response rating, Morningglory: 20
[11]; 250 g ai/ha
  Plant response rating, Morningglory: 10
[12]; 31 g ai/ha
  Plant response rating, Lambsquarters: 55
[12]; 62 g ai/ha
  Plant response rating, Lambsquarters: 50
[12]; 125 g ai/ha
  Plant response rating, Lambsquarters: 65
[12]; 250 g ai/ha
  Plant response rating, Lambsquarters: 65
[13]; 31 g ai/ha
  Plant response rating, Johnsongrass: 0
[13]; 62 g ai/ha
  Plant response rating, Johnsongrass: 0
[13]; 125 g ai/ha
  Plant response rating, Johnsongrass: 20
[13]; 250 g ai/ha
  Plant response rating, Johnsongrass: 50
[14]; 31 g ai/ha
  Plant response rating, Ragweed: 5
[14]; 62 g ai/ha
  Plant response rating, Ragweed: 10
[14]; 125 g ai/ha
  Plant response rating, Ragweed: 20
[14]; 250 g ai/ha
  Plant response rating, Ragweed: 60
[15]; 31 g ai/ha
  Plant response rating, Crabgrass, Large: 90
[15]; 62 g ai/ha
  Plant response rating, Crabgrass, Large: 90
[15]; 125 g ai/ha
  Plant response rating, Crabgrass, Large: 90
[15]; 250 g ai/ha
  Plant response rating, Crabgrass, Large: 95
[16]; 31 g ai/ha
  Plant response rating, Pigweed: 55
[16]; 62 g ai/ha
  Plant response rating, Pigweed: 60
[16]; 125 g ai/ha
  Plant response rating, Pigweed: 80
[16]; 250 g ai/ha
  Plant response rating, Pigweed: 80

## Cc1ccc(C2CN(C)C(=O)C2C(=O)Nc2cccc(F)c2F)cc1F (stereo not shown) [Compound 464]
[1]; 62 g ai/ha
  Plant response rating, Wheat: 50
[1]; 125 g ai/ha
  Plant response rating, Wheat: 70
[1]; 250 g ai/ha
  Plant response rating, Wheat: 90
[2]; 31 g ai/ha
  Plant response rating, Barnyardgrass: 90
[2]; 62 g ai/ha
  Plant response rating, Barnyardgrass: 95
[2]; 125 g ai/ha
  Plant response rating, Barnyardgrass: 95
[2]; 250 g ai/ha
  Plant response rating, Barnyardgrass: 98
[3]; 31 g ai/ha
  Plant response rating, Blackgrass: 80
[3]; 62 g ai/ha
  Plant response rating, Blackgrass: 85
[3]; 125 g ai/ha
  Plant response rating, Blackgrass: 85
[3]; 250 g ai/ha
  Plant response rating, Blackgrass: 85
[5]; 31 g ai/ha
  Plant response rating, Nutsedge, Yellow: 0
[5]; 62 g ai/ha
  Plant response rating, Nutsedge, Yellow: 0
[5]; 125 g ai/ha
  Plant response rating, Nutsedge, Yellow: 0
[5]; 250 g ai/ha
  Plant response rating, Nutsedge, Yellow: 0
Corn (Zea mays); 31 g ai/ha
  Plant response rating, Corn: 50
Corn (Zea mays); 62 g ai/ha
  Plant response rating, Corn: 70
Corn (Zea mays); 125 g ai/ha
  Plant response rating, Corn: 75
Corn (Zea mays); 250 g ai/ha
  Plant response rating, Corn: 90
Soybean (Glycine max); 62 g ai/ha
  Plant response rating, Soybean: 0
Soybean (Glycine max); 125 g ai/ha
  Plant response rating, Soybean: 0
Soybean (Glycine max); 250 g ai/ha
  Plant response rating, Soybean: 0
[6]; 31 g ai/ha
  Plant response rating, Galium: 90
[6]; 62 g ai/ha
  Plant response rating, Galium: 95
[6]; 125 g ai/ha
  Plant response rating, Galium: 95
[6]; 250 g ai/ha
  Plant response rating, Galium: 95
[7]; 62 g ai/ha
  Plant response rating, Velvetleaf: 30
[7]; 125 g ai/ha
  Plant response rating, Velvetleaf: 45
[7]; 250 g ai/ha
  Plant response rating, Velvetleaf: 60
[8]; 31 g ai/ha
  Plant response rating, Oilseed Rape: 80
[8]; 62 g ai/ha
  Plant response rating, Oilseed Rape: 85
[8]; 125 g ai/ha
  Plant response rating, Oilseed Rape: 80
[8]; 250 g ai/ha
  Plant response rating, Oilseed Rape: 90
[9]; 62 g ai/ha
  Plant response rating, Waterhemp: 75
[9]; 125 g ai/ha
  Plant response rating, Waterhemp: 80
[9]; 250 g ai/ha
  Plant response rating, Waterhemp: 95
[10]; 62 g ai/ha
  Plant response rating, Ryegrass, Italian: 55
[10]; 125 g ai/ha
  Plant response rating, Ryegrass, Italian: 70
[10]; 250 g ai/ha
  Plant response rating, Ryegrass, Italian: 85
[11]; 31 g ai/ha
  Plant response rating, Morningglory: 10
[11]; 62 g ai/ha
  Plant response rating, Morningglory: 20
[11]; 125 g ai/ha
  Plant response rating, Morningglory: 20
[11]; 250 g ai/ha
  Plant response rating, Morningglory: 40
[12]; 31 g ai/ha
  Plant response rating, Lambsquarters: 45
[12]; 62 g ai/ha
  Plant response rating, Lambsquarters: 80
[12]; 125 g ai/ha
  Plant response rating, Lambsquarters: 80
[12]; 250 g ai/ha
  Plant response rating, Lambsquarters: 90
[13]; 31 g ai/ha
  Plant response rating, Johnsongrass: 35
[13]; 62 g ai/ha
  Plant response rating, Johnsongrass: 80
[13]; 125 g ai/ha
  Plant response rating, Johnsongrass: 85
[13]; 250 g ai/ha
  Plant response rating, Johnsongrass: 95
[14]; 31 g ai/ha
  Plant response rating, Ragweed: 70
[14]; 62 g ai/ha
  Plant response rating, Ragweed: 70
[14]; 125 g ai/ha
  Plant response rating, Ragweed: 75
[14]; 250 g ai/ha
  Plant response rating, Ragweed: 90
[15]; 31 g ai/ha
  Plant response rating, Crabgrass, Large: 95
[15]; 62 g ai/ha
  Plant response rating, Crabgrass, Large: 100
[15]; 125 g ai/ha
  Plant response rating, Crabgrass, Large: 100
[15]; 250 g ai/ha
  Plant response rating, Crabgrass, Large: 100
[16]; 31 g ai/ha
  Plant response rating, Pigweed: 45
[16]; 62 g ai/ha
  Plant response rating, Pigweed: 45
[16]; 125 g ai/ha
  Plant response rating, Pigweed: 60
[16]; 250 g ai/ha
  Plant response rating, Pigweed: 70
